Series [1] can be described thus: in vitro. Type of series: cell-based. The following applies: human, 72 h, MTS. The protocol: (§1) THP-1 (human monocyte cell line) cells were cultivated in RPMI medium supplemented with 10% foetal calf serum (FCS) (Cultilab, Campinas, SP, BR) and 1% penicillin and streptomycin (pen/strep—Sigma-Aldrich) at 37°C under 5% CO2, and HFF-1 (human fibroblast) and HepG2 (hepatocytes) cells were cultivated in DMEM without phenol red (Cultilab) supplemented with 10% FBS (Sigma-Aldrich) and 1% pen/strep at 37°C under 5% CO2.
The cytotoxicity of the compounds against HFF-1 fibroblasts and HepG2 hepatocytes was evaluated using the MTS tetrazolium assay (Promega, Madison, WI, USA). HFF-1 fibroblasts were seeded at 4x10^3/well in 96-well culture plates in DMEM without phenol red and incubated overnight (37°C, 5% CO2). HepG2 hepatocytes were seeded at 7x10^3/well in 96-well culture plates in DMEM (Cultilab) with supplements (10% FCS, 1% pen/strep) and incubated overnight (37°C, 5% CO2). The compounds were added in 2-fold serial dilutions at the same concentrations described before, and the plates were incubated as described before. Each compound concentration was evaluated in duplicate. All the plates included doxorubicin (DOX) (Sigma-Aldrich) as a positive control (10–0.01 μM) and untreated wells as a negative control (100% growth). After 72 h, 15 μL of MTS (Promega) was added, and the plates were incubated for 4 h. The absorbance was measured at 490 nm in an automated SpectraMax 384 microplate reader (Sunnyvale, CA, USA), and the data were analysed using GraphPad Prism version 8.0 for CC50 value calculation. The percentage of nonviable cells was determined and compared to the negative control wells (100% growth).

Series [2] concerns intracellular L. infantum amastigotes. Nature of the series: microbe, parasite or virus in culture. Type of series: cell-based, Leishmania infantum. Conditions: for IC50: intracellular amastigotes in THP-1 macrophages, 120 h, read-out: L. infantum IC50 (μM ± SD); for SI^2 (CC50 THP-1/IC50 L. infantum) / SI^4 (CC50 HepG2/IC50 L. infantum): selectivity index. The protocol: The epimastigote forms of the T. cruzi Tulahuen strain, which expresses the E. coli β-galactosidase gene lacZ [11], were grown in liver infusion tryptone (LIT) supplemented with 10% FCS (Cultilab) and 1% pen/strep (Sigma–Aldrich) at 28°C. Metacyclogenesis from epimastigotes to trypomastigotes was induced by the incubation of the epimastigotes in Grace’s insect medium (Sigma-Aldrich, 28°C) every 5 days. After 5 days, the trypomastigote forms were used to infect the HFF-1 cells. The promastigote forms of L. infantum were maintained in Schneider’s insect medium (Sigma-Aldrich) supplemented with 10% FCS (Cultilab) and 1% pen/strep (Sigma-Aldrich) at 28°C and subcultured every 6 or 7 days.
In the intracellular amastigote assay, THP-1 cells were seeded at 2x10^4/well (RPMI-1640, 100 μL) with phorbol 12-myristate 13-acetate (PMA) at 20 ng/mL for differentiation into macrophages. After incubation for 72 h (5% CO2, 37°C), the medium was aspirated, and late-stage L. infantum promastigotes were added (2x10^5/well, 100 μL). Following 24 h of incubation, the medium was aspirated to clear extracellular parasites, and the compounds were added in serial dilutions (2-fold) to final concentrations of 64–0.12 μM. The plates included negative controls (100% growth) and MIL (64–0.12 μM) as a positive control. After 120 h of incubation, the medium was removed, and the cells were fixed in methanol and stained with Giemsa. The average number of intracellular amastigotes per THP-1-cell was determined using an inverted microscope and a cell counter. Growth inhibition is expressed as a percentage of the average number of amastigotes per macrophage in the negative control wells. The IC50 values were obtained using GraphPad Prism version 8.0.
The analyses were performed using GraphPad Prism version 8.0 (GraphPad Software, San Diego, CA, USA). Both the IC50 and CC50 values were calculated by adjusting the sigmoid dose-response curves, and the selectivity index (SI) values were determined by CC50/IC50 [16]. Statistical analyses were performed using one-way ANOVA followed by Dunnett’s multiple comparison test.

A short description of series [3]: in vitro. The following applies: human; 72 h, resazurin; read-out: THP-1 CC50 (μM ± SD). The class given is cell-based. The protocol: as §1
THP-1 cells were seeded at 2x10^4/well in 96-well culture plates in RPMI 1640 supplemented (10% FCS, 1% pen/strep) and incubated overnight (37°C, 5% CO2). The compounds were added in 2-fold serial dilutions (64–0.12 μM), and the plates were incubated as described before. Each compound concentration was evaluated in duplicate. All the plates included DOX (Sigma-Aldrich) as a positive control (10–0.01 μM) and untreated wells as a negative control (100% growth). After 72 h, 20 μL of resazurin (Sigma-Aldrich) was added, and the plates were incubated for 4 h. The absorbance was measured at 536 and 588 nm in an automated microplate reader SpectraMax Gemini, and the data were analysed using GraphPad Prism version 8.0 for CC50 value calculation. The percentage of nonviable cells was determined and compared to the negative control wells (100% growth).
For orientation: The colour change of resazurin is a common sign of viable cells or microbes.

Series [4] can be described thus: physchem. The class given is physicochemical. Conditions: aqueous buffer, kinetic from dmso stock. On the procedure: The plate was sealed and shaken for 24 hours (200 rpm, r.t.). The precipitates on the incubation plate were removed by centrifugation (15 min., 3000 rpm, r.t.). The supernatant fractions were quantified by LC-MS/MS (liquid chromatography-tandem mass spectrometry) Prominence UFLC (Shimadzu Corporation, Kyoto, Japan) and interface with an LCMS-8045 triple quadrupole mass spectrometer (Shimadzu Corporation, Kyoto, Japan) with an electrospray ionization source (ESI). From a 10 mM standard solution, an intermediate standard dilution of 0.5 mM in a 1:1 acetonitrile:water solution was prepared. Calibration curves were prepared for each cytochalasin by diluting the intermediate standard several times to reach the desired concentrations of 50, 40, 20, 2, and 1 μM. The resulting equation for the calibration curve (y = mx + b) was used to calculate the experimental concentration values for the cytochalasins. The chromatogram for analysis was obtained on a Supelco Ascentis express C18 column (3 cm x 2.1 mm, 5 μM). The mobile phases consisted of water + 0.05% formic acid (A) and acetonitrile + 0.05% formic acid (B). The mobile phase was eluted in binary gradient mode, and the gradient was as follows: 0 min, 98% A; 1.2 mins. 2% A; 2.0 mins: 2% A; and re-equilibration time: 0.6 min., 98% A. The run time was 2 minutes, the sample injection volume was 5 μL, and the flow rate was 0.6 mL/min.

[5] abbreviates: Leishmania infantum, THP-1, 120 h.
Setting [6] is: PBS pH 2.0, 24 h, read-out: Kinetic Solubility pH 2.0 (LogS) (converted).
[7] abbreviates: PBS pH 7.4, 24 h, read-out: Kinetic Solubility pH 7.4 (LogS) (converted).

In brackets after ≈: the same amount, converted by molar mass. Read-outs that look alike come from different tables or passages of the source.

The term CC50 denotes the concentration giving 50% cytotoxicity. The IC50 is the concentration that gives 50% inhibition. Usually solubility (kinetic) stands for the concentration staying in solution when a stock, usually in DMSO, is diluted into the medium. As for `C=C1[C@@H](C)[C@H]2[C@H](Cc3ccccc3)NC(=O)[C@]23OC(=O)/C=C/C(=O)CCC[C@@H](C)C/C=C/[C@H]3[C@@H]1O` [Cytochalasin A], the cytotoxic concentration (CC50) in series [1] (read-out: HFF-1 CC50 (μM ± SD)) was found to be 27.07 ± 0.17 µM; in series [1] (read-out: HepG2 CC50 (μM ± SD)), 21.1 ± 4.51 µM; in series [3], 17 ± 1.34 µM. For the same molecule, in series [2] (setting [5]), the IC50 worked out at 2.76 ± 1.17 µM. For the same molecule, the “SI^2 (CC50 THP-1/IC50 L. infantum)” value in series [2] is given as 6.17. Besides, the “SI^4 (CC50 HepG2/IC50 L. infantum)” value in series [2] is listed as 7.65. For the same molecule, the kinetic solubility is 39.8 µM (≈ 19 µg/mL) in series [4] (setting [6]) and 69.2 µM (≈ 33 µg/mL) in series [4] (setting [7]).
As for `C=C1[C@@H](C)[C@H]2[C@H](Cc3ccccc3)NC(=O)[C@]23OC(=O)/C=C/[C@H](O)CCC[C@@H](C)C/C=C/[C@H]3[C@@H]1O` [Cytochalasin B], the half-maximal cytotoxic concentration (CC50) came out at 21.8 ± 3.57 µM in series [1] (read-out: HFF-1 CC50 (μM ± SD)), 46.3 ± 19.3 µM in series [1] (read-out: HepG2 CC50 (μM ± SD)) and 109 ± 2.4 µM in series [3]. The IC50 in series [2] (setting [5]) was 22 to 23 µM; in series [2], 23.9 ± 3.02 µM. Further, in series [2], the “SI^2 (CC50 THP-1/IC50 L. infantum)” value is listed as 4.57. Besides, the “SI^4 (CC50 HepG2/IC50 L. infantum)” value in series [2] is on record as 1.93. For the same molecule, the solubility (kinetic) in series [4] (setting [6]) and in series [4] (setting [7]) was 77.6 µM (≈ 37.2 µg/mL) in each case.
As to `CC(=O)OC1C=CC(C)(O)C(=O)C(C)CC=CC2C(O)C(C)=C(C)C3C(Cc4ccccc4)NC(=O)C123` (stereo not drawn) [Cytochalasin C], the values for the CC50 in series [1] (read-out: HFF-1 CC50 (μM ± SD)), in series [1] (read-out: HepG2 CC50 (μM ± SD)) and in series [3] were 76.3 ± 3.12 µM, 22.5 ± 6.47 µM and 84.8 ± 6.84 µM, respectively. Further, the IC50 in series [2] (setting [5]) stood at 23.2 ± 4.9 µM. The “SI^2 (CC50 THP-1/IC50 L. infantum)” value in series [2] is 3.65. In addition, in series [2], the “SI^4 (CC50 HepG2/IC50 L. infantum)” value was found to be 0.96. The solubility (kinetic) was 17 µM (≈ 8.62 µg/mL) in series [4] (setting [6]) and 46.8 µM (≈ 23.7 µg/mL) in series [4] (setting [7]).
In the case of `C=C1[C@@H](C)[C@H]2[C@H](Cc3ccccc3)NC(=O)[C@]23[C@H](OC(C)=O)/C=C/[C@@](C)(O)C(=O)[C@@H](C)C/C=C/[C@H]3[C@@H]1O` [Cytochalasin D], the half-maximal cytotoxic concentration (CC50) in series [1] (read-out: HFF-1 CC50 (μM ± SD)) is 96.5 ± 10 µM; in series [1] (read-out: HepG2 CC50 (μM ± SD)), 123 ± 20 µM; in series [3], 122 ± 11.3 µM. Also, the half-maximal inhibitory concentration (IC50) in series [2] (setting [5]) is 22.5 ± 0.97 µM. Also, the “SI^2 (CC50 THP-1/IC50 L. infantum)” value in series [2] is on record as 5.42. In addition, in series [2], the “SI^4 (CC50 HepG2/IC50 L. infantum)” value is recorded as 5.46. The solubility (kinetic) in series [4] (setting [6]) was 42.7 µM (≈ 21.7 µg/mL); in series [4] (setting [7]), 46.8 µM (≈ 23.7 µg/mL).

The values above are taken from publication PMC9529094, “Identification of natural cytochalasins as leads for neglected tropical diseases drug discovery” (PLoS ONE, 2022).
